The values below are quoted from earlier work in US20080085243A1, “MOLECULAR MARKERS FOR D[…] RESPONSIVENESS” (SIGMA-ALDRICH COMPANY, priority 2006, published 2008).

The subject of the data set is late stage non-small cell lung cancer (NSCLC).

Take `CC(=O)O[C@H]1C(=O)[C@@]2(C)[C@H]([C@H](OC(=O)c3ccccc3)[C@]3(O)C[C@H](OC(=O)[C@H](O)[C@@H](NC(=O)c4ccccc4)c4ccccc4)C(C)=C1C3(C)C)[C@]1(OC(C)=O)CO[C@@H]1C[C@@H]2O` [paclitaxel]: the “patients who respond therapeutically” value is listed as “about 20%”.
